These results are taken from ChEMBL document CHEMBL3808319, “Development of novel cyclic peptides as pro-apoptotic agents” (Eur J Med Chem, 2016).

In assay [1] the target is T1, Tubulin (Sus scrofa) (UniProt P02554+P02550). The assay can be described thus: Induction of pig tubulin polymerization at 10 uM after 60 mins by spectroscopic analysis. The format is protein assay.
The test system of assay [2] is HL-60. The assay can be described thus: Induction of apoptosis in human HL60 cells assessed as accumulation at subG0/G1 phase at 50 uM after 24 hrs by Annexin V and propidium iodide staining based flow cytometric analysis (reference value: 3.14 +/- 0.9 %). The format is functional. On the technique in general: Flow cytometry measures light scatter and fluorescence of single cells or particles in a stream.

The species named for assay [3] is Homo sapiens. In words: Induction of apoptosis in human 501mel cells assessed as accumulation at subG0/G1 phase at 50 uM after 24 hrs by Annexin V and propidium iodide staining based flow cytometric analysis (reference value: 9 +/- 1.8 %). Type of assay: functional, cell-based.
Another assay deals with MCF7. The assay can be described thus: Induction of apoptosis in human MCF7 cells assessed as accumulation at subG0/G1 phase at 50 uM after 48 hrs by Annexin V and propidium iodide staining based flow cytometric analysis (reference value: 8.5 +/- 2.4 %). Type of assay: functional.
Assay [4] can be described thus: Induction of apoptosis in human EBV-B cells assessed as accumulation at subG0/G1 phase at 25 uM after 24 hrs by Annexin V and propidium iodide staining based flow cytometric analysis (reference value: 1.6 %). Type of assay: functional.
For another assay, the system named is B16-F10. The assay can be described thus: Induction of apoptosis in mouse B16F10 cells assessed as accumulation at subG0/G1 phase at 50 uM after 24 hrs by Annexin V and propidium iodide staining based flow cytometric analysis (reference value: 3.7 +/- 3 %). The format is functional.
For assay [5], the system named is A-375. The assay can be described thus: Induction of apoptosis in human A375 cells assessed as accumulation at subG0/G1 phase at 50 uM after 24 hrs by Annexin V and propidium iodide staining based flow cytometric analysis (reference value: 7 +/- 1 %). Type of assay: functional, cell-based.
The species entered for assay [6] is Homo sapiens. In words: Induction of apoptosis in human 501mel cells assessed as accumulation at subG0/G1 phase at 100 uM after 72 hrs by Annexin V and propidium iodide staining based flow cytometric analysis. The format is functional, cell-based.
The subject of the next assay is Jurkat. In words: Induction of apoptosis in human Jurkat cells assessed as accumulation at subG0/G1 phase at 25 uM after 24 hrs by Annexin V and propidium iodide staining based flow cytometric analysis (reference value: 3.9 %). The format is functional.
The subject of assay [7] is HL-60. In words: Induction of apoptosis in human HL60 cells assessed as accumulation at subG0/G1 phase at 100 uM after 24 hrs by Annexin V and propidium iodide staining based flow cytometric analysis (reference value: 3.14 +/- 0.9 %). The format is functional.
Assay [8] concerns A-375. In words: Induction of apoptosis in human A375 cells assessed as accumulation at subG0/G1 phase at 100 uM after 72 hrs by Annexin V and propidium iodide staining based flow cytometric analysis. The format is functional, cell-based.
Assay [9] concerns HL-60. The assay can be described thus: Induction of apoptosis in human HL60 cells assessed as accumulation at subG0/G1 phase at 25 uM after 24 hrs by Annexin V and propidium iodide staining based flow cytometric analysis (reference value: 5 %). The format is functional.
The next assay has as its system B16-F1. The assay can be described thus: Induction of apoptosis in mouse B16-F1 cells assessed as accumulation at subG0/G1 phase at 50 uM after 24 hrs Annexin V and propidium iodide staining based flow cytometric analysis (reference value: 1.9 +/- 1.6 %). The format is functional.
For a further assay, the system named is RBL-2H3. In words: Induction of tubulin polymerization in rat RBL2H3 cells assessed as induction of alteration of microtubule network at 50 uM preincubated for 16 hrs measured after 24 hrs by confocal laser scanning microscopic analysis. Type of assay: cell-based.
Assay [10] concerns HL-60. In words: Induction of apoptosis in human HL60 cells assessed as accumulation at subG0/G1 phase after 24 hrs by Annexin V and propidium iodide staining based flow cytometric analysis. The format is functional, cell-based.
In assay [11] the test system is HL-60. The assay can be described thus: Induction of apoptosis in human HL60 cells assessed as reduction in accumulation at G0/G1 phase after 24 hrs by propidium iodide staining based flow cytometric analysis. Type of assay: functional, cell-based.
Assay [12] has as its system HL-60. In words: Induction of apoptosis in human HL60 cells assessed as loss of mitochondrial inner transmembrane potential at 50 uM after 24 hrs by TMRM dye based flow cytometric analysis. Type of assay: functional, cell-based.
In assay [13] the test system is HL-60. The assay can be described thus: Induction of apoptosis in human HL60 cells assessed as reduction in accumulation at G2/M phase after 24 hrs by propidium iodide staining based flow cytometric analysis. Type of assay: functional, cell-based.
The target in assay [14] is T1, Tubulin (Sus scrofa). In words: Induction of pig tubulin polymerization at 100 uM after 60 mins by spectroscopic analysis. The format is protein assay.
A short description of assay [15]: Induction of apoptosis in human 501mel cells assessed as accumulation at subG0/G1 phase at 50 uM after 72 hrs by Annexin V and propidium iodide staining based flow cytometric analysis (reference value: 9 +/- 1.8%). The format is functional.
In assay [16] the test system is A-375. In words: Induction of apoptosis in human A375 cells assessed as accumulation at subG0/G1 phase at 50 uM after 72 hrs by Annexin V and propidium iodide staining based flow cytometric analysis (reference value: 7 +/- 1 %). Type of assay: functional.

The source made the active and inactive calls. The calls are words filed in the database; no cut-off is given here. *1 amine or outer side, *2 acyl side, *3 side chain or, on linkers, in order; H or OH if unused. Where a SMILES comes first, the peptide text is derived from it. [ ]: non-standard residue; d: D form. The star is where a group is joined. NH(CH2)2O(CH2)2NH2 = NCCOCCN*; ΔPro = O=C(O)[C@@H]1C=CCN1; CO = O=C([*:1])[*:2]; Bn = c1ccc(C*)cc1; GABA = NCCCC(=O)O; βAla = NCCC(=O)O

T1 sequence (P02550 whole entry, looked up): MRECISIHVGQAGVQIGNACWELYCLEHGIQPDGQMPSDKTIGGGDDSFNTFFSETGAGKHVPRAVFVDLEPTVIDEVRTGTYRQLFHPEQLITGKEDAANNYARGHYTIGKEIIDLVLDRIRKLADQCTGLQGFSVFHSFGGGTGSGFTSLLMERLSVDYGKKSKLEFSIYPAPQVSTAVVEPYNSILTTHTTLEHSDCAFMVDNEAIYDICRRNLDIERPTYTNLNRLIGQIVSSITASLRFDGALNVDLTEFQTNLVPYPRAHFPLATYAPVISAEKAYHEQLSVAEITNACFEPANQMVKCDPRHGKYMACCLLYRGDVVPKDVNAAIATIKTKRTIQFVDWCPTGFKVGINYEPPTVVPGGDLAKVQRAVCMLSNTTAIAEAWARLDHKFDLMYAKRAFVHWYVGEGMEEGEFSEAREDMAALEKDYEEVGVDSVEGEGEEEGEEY
T1 sequence (P02554 whole entry, looked up): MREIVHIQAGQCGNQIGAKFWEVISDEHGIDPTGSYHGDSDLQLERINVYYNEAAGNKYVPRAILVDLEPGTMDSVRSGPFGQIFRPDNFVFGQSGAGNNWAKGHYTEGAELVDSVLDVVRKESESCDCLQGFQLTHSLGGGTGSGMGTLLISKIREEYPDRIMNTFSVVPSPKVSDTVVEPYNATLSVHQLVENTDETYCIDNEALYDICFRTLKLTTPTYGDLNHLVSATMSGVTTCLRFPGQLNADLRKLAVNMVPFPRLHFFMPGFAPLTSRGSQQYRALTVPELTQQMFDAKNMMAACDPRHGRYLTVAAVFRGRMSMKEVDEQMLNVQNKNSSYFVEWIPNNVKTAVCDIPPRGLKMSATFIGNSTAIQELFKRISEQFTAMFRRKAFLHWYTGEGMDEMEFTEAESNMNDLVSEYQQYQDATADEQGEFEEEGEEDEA

Regarding `CC(=O)O[C@H]1C(=O)[C@@]2(C)[C@H]([C@H](OC(=O)c3ccccc3)[C@]3(O)C[C@H](OC(=O)[C@H](O)[C@@H](NC(=O)c4ccccc4)c4ccccc4)C(C)=C1C3(C)C)[C@]1(OC(C)=O)CO[C@@H]1C[C@@H]2O`, at Tubulin (Sus scrofa) [1], the result was Active.

As for Ac-VPPPPI-NH2, in the assay with HL-60 [2], the result was inactive.

Take `CC[C@H](C)[C@H](NC(=O)[C@@H]1CCCN1C(=O)[C@@H]1CCCN1C(C)=O)C(=O)N[C@H](C(=O)N1CCC[C@H]1C(=O)N[C@@H](Cc1ccc(O)cc1)C(=O)N[C@@H](Cc1ccccc1)C(=O)N(C)C)C(C)C` (Ac-PPIVPYF-NMe2): the outcome with HL-60 [2] was inactive.

For Ac-LVPPPPIVPYF-NH2, the outcome in the assay listed under Homo sapiens [3], in the assay on MCF7, with B16-F10, in the assay with A-375 [5], in the assay on HL-60 [2] and in the assay filed under Homo sapiens [6] was inactive. For the same compound, the outcome in the assay on A-375 [8] and in the assay on B16-F1 was inactive. Besides, the Activity was 2.3% in [4], 4% in the assay on Jurkat, 6.5% in the assay on HL-60 [7] and 7.7% in the assay with HL-60 [9].

On to `CC[C@H](C)[C@@H]1NC(=O)[C@@H]2CCCN2C(=O)[C@@H]2CCCN2C(=O)CNC(=O)[C@H](Cc2ccccc2)NC(=O)[C@H](Cc2ccc(O)cc2)NC(=O)[C@@H]2CCCN2C(=O)[C@H](C(C)C)NC1=O` (cyclo(FGPPIVPY)), for which the outcome in the assay with RBL-2H3 and with HL-60 [12] was Active. Moreover, the Activity in the assay with MCF7 was 17.3%; in the assay on HL-60 [10] it was “Dose-dependent effect”; with HL-60 [2], 42%; in the assay on HL-60 [11], “Dose-dependent effect”; with HL-60 [13] it was “Dose-dependent effect”.

Ac-LVPPPPIVPYF-OH: the outcome in the assay on HL-60 [2] was inactive. Moreover, in the assay on HL-60 [7], the Activity came to 7.2%.

For `CC[C@H](C)[C@@H]1NC(=O)NCCOCCCNC(=O)[C@H](Cc2ccccc2)NC(=O)[C@H](Cc2ccc(OCc3ccccc3)cc2)NC(=O)[C@@H]2C=CCN2C(=O)[C@H](C(C)C)NC1=O`, the Activity entry in the assay on HL-60 [10] is “Dose-dependent effect”; with HL-60 [2], 77%; in the assay with HL-60 [11], “Dose-dependent effect”; in the assay on HL-60 [13], “Dose-dependent effect”. Moreover, in the assay with HL-60 [12], the result was Active.

Regarding Ac-PPIVPYF-OH, the outcome in the assay with HL-60 [2] was inactive.

Regarding `CC[C@H](C)[C@@H]1NC(=O)[C@@H]2CCCN2C(=O)[C@@H]2CCCN2C(=O)CCNC(=O)[C@H](Cc2ccccc2)NC(=O)[C@H](Cc2ccc(O)cc2)NC(=O)[C@@H]2CCCN2C(=O)[C@H](C(C)C)NC1=O` (cyclo(F[βAla]PPIVPY)), the Activity in the assay with MCF7 was 18.9%; in the assay on HL-60 [10] it was “Dose-dependent effect”; in the assay with HL-60 [2] it was 33.1%; with HL-60 [11], “Dose-dependent effect”; with HL-60 [13], “Dose-dependent effect”. The result at Tubulin (Sus scrofa) [14] and in the assay with HL-60 [12] was Active.

Take `CC[C@H](C)[C@H](NC(=O)NCCOCCN)C(=O)N[C@H](C(=O)N1CC=C[C@H]1C(=O)N[C@@H](Cc1ccc(OCc2ccccc2)cc1)C(=O)N[C@@H](Cc1ccccc1)C(=O)O)C(C)C` ({NH(CH2)2O(CH2)2NH2-CO}-IV[ΔPro]Y(Bn)F-OH): in the assay on HL-60 [2], the outcome was inactive.

For the compound `CC[C@H](C)[C@@H]1NC(=O)[C@@H]2CCCN2C(=O)[C@@H]2CCCN2C(=O)CCCNC(=O)[C@H](Cc2ccccc2)NC(=O)[C@H](Cc2ccc(O)cc2)NC(=O)CNC(=O)[C@H](C(C)C)NC1=O` (cyclo(F[GABA]PPIVGY)), the Activity in the assay with HL-60 [2] is 11%.

Take `CC[C@H](C)[C@@H]1NC(=O)[C@@H]2CCCN2C(=O)[C@@H]2CCCN2C(=O)CCCNC(=O)[C@H](Cc2ccccc2)NC(=O)[C@H](Cc2ccc(O)cc2)NC(=O)[C@@H]2CCCN2C(=O)[C@H](C(C)C)NC1=O` (cyclo(F[GABA]PPIVPY)): the outcome in the assay with RBL-2H3 and in the assay on HL-60 [12] was Active. Also, the Activity in the assay with MCF7 was 11.8%; in the assay on HL-60 [10], “Dose-dependent effect”; in assay [4], 11.4%; with B16-F10 it was 13.6%; in the assay on HL-60 [2], 56.6%; in [15] it was 17%. Moreover, the Activity result with HL-60 [11] was “Dose-dependent effect”; in the assay on Jurkat, 12%; in the assay on A-375 [16], 48%; in the assay with HL-60 [13], “Dose-dependent effect”; in the assay on HL-60 [9], 17%; in the assay with B16-F1, 13.9%.

On to `CC[C@H](C)[C@H](NC(=O)[C@@H]1CCCN1C(=O)[C@@H]1CCCN1C(=O)CCCN)C(=O)N[C@H](C(=O)N1CCC[C@H]1C(=O)N[C@@H](Cc1ccc(O)cc1)C(=O)N[C@@H](Cc1ccccc1)C(=O)O)C(C)C` (H-[GABA]PPIVPYF-OH), for which, in the assay with HL-60 [2], the result was inactive.

`CC[C@H](C)[C@H](NC(=O)[C@@H]1CCCN1C(=O)[C@@H]1CCCN1C(=O)CCN)C(=O)N[C@H](C(=O)NCC(=O)N[C@@H](Cc1ccc(O)cc1)C(=O)N[C@@H](Cc1ccccc1)C(=O)O)C(C)C` (H-[βAla]PPIVGYF-OH): the outcome in the assay on HL-60 [2] was inactive.

Consider `CC[C@H](C)[C@H](NC(=O)[C@@H]1CCCN1C(=O)[C@@H]1CCCN1C(=O)CCCN)C(=O)N[C@H](C(=O)N1CC=C[C@H]1C(=O)N[C@@H](Cc1ccc(O)cc1)C(=O)N[C@@H](Cc1ccccc1)C(=O)O)C(C)C` (H-[GABA]PPIV[ΔPro]YF-OH), for which the outcome in the assay with HL-60 [2] was inactive.

Regarding `CC[C@H](C)[C@@H]1NC(=O)NCCOCCNC(=O)[C@H](Cc2ccccc2)NC(=O)[C@H](Cc2ccc(O)cc2)NC(=O)[C@@H]2C=CCN2C(=O)[C@H](C(C)C)NC1=O`, in the assay on HL-60 [2], the Activity is 5%.

In the case of `CC[C@H](C)[C@H](NC(=O)[C@@H]1CCCN1C(=O)[C@@H]1CCCN1C(=O)CCCN)C(=O)N[C@H](C(=O)NCC(=O)N[C@@H](Cc1ccc(O)cc1)C(=O)N[C@@H](Cc1ccccc1)C(=O)O)C(C)C` (H-[GABA]PPIVGYF-OH), in the assay with HL-60 [2], the result was inactive.

H-GPPIVPYF-OH: the outcome in the assay with HL-60 [2] was inactive.

On to `CC[C@H](C)[C@@H]1NC(=O)[C@@H]2CCCN2C(=O)[C@@H]2CCCN2C(=O)CCCNC(=O)[C@H](Cc2ccccc2)NC(=O)[C@H](Cc2ccc(O)cc2)NC(=O)[C@@H]2C=CCN2C(=O)[C@H](C(C)C)NC1=O` (cyclo(F[GABA]PPIV[ΔPro]Y)), for which, in the assay with HL-60 [2], the Activity came to 7%.
